Assay results published in patent US20050282743A1, “Molecular interactions in cells” (Arbor Vita Corporation, priority 2001, published 2005).
Where a name gives a salt, the structure may show the parent alone.

What was measured:
[1] = test system: hSyntenin : Presenilin (115L); assay: G assay with FDA approved drug (Example 7, TABLE 10A); format: binding; conditions: OD in absence of drug 1.1; drug concentration per TABLE 11; read after 30 minutes
Experimental: (§1) For certain of the PDZ proteins and PL proteins shown to bind together and for which Kd values had been obtained, additional testing was conducted to determine whether certain pharmaceutical compounds would act to antagonize or agonize the interactions. Assays were conducted as for the G′ assay described supra both in the presence and absence of test compound, except that 50 ul of a 10 uM solution of the biotinylated PL peptide is allowed to react with the surface bearing the PDZ-domain polypeptide instead of a 20 uM solution as specified in step (2) of the assay.
(§2) In both tables, the first column (left to right) entitled “PDZ domain” lists the gene name of GST-PDZ domain fusion (see TABLE 9). Entries having two numbers separated by a slash indicate which PDZ domain was utilized. For example, in TABLE 10A, the entry for ZO-3 is 1/3. This means that PDZ domain 1 of 3 was used.
(§3) The second column labeled “PL” indicates the name of the PDZ ligand (see TABLES 10A and 10B) interacting with the PDZ domain. The third column entitled “Drug” lists the common or trade name of pharmaceutical compound tested and found to modulate the specific PDZ-PL interaction (suppliers and chemical information are listed in TABLE 11). The final column with the heading “Change in OD” indicates the change in absorbance at 450 nm of the assay in the absence (first number) or presence (second number) of chemical compound.
(§4) Many FDA approved drugs have unknown mechanism of function. It is quite possible that some of these drugs function by disrupting or increasing PDZ/PL interactions. This possibility was examined by using the ‘G Assay’ (Example 3 section D). FDA approved drugs were incubated in the presence of the labeled peptide and compared to the same interaction without drug to determine if there was an effect on specific PDZ:PL interactions (drugs added with peptide at step 9 in Example 3D). The primary focus of this experiment was on drugs involved in treatment of depression (amitriptyline, desipramine, trimipramine, benztropine, and nortryptilline) and epilepsy (valproic acid). No modes of action are known for these drugs.
(§5) Therapeutic dose was determined by guidelines given in the Physician's Desk Reference and in the assay, 200 times this amount was used. If a dosage range was given, the upper end of the range was used. Each interaction listed in TABLES 10A & B was tested in the ‘G Assay’ (see Example 3) against each of the drugs listed in TABLE 11. The concentration of GST-fusion protein and peptide used in the assay represent the Kd and were determined by titration. These values can be found in TABLE 7. The drugs were added to the peptide before addition to the well containing the PDZ protein. Otherwise, the assay was carried out as described and read at 450 nm after 30 minutes of developing. For the sequences of the PDZs and PLs used in these tests, see TABLES 8 & 9.
(§6) List of interactions and therapeutics for which a modulation of binding was observed. Concentrations at which the GST-PDZ fusion protein and labeled peptide were used can be found in Table 7 or Table 12.

[2] = biological target: T1, ZO-3 1/3 : Presenilin (115L) (Homo sapiens, UniProt O95049); assay: as above; format: binding; conditions: OD in absence of drug 1.2; drug concentration per TABLE 11; read after 30 minutes
T1 construct: the entry for ZO-3 is 1/3; This means that PDZ domain 1 of 3 was used; made in house; host or cells: E. coli (DH5alpha, BL21 or JM109)
Experimental: as §1, §2, §3, §4, §5, §6

[3] = biological target: T2, FLJ10324 : Presenilin 2 (117L) (Homo sapiens, UniProt Q96JH8); assay: as above; format: binding; conditions: OD in absence of drug 0.4; drug concentration per TABLE 11; read after 30 minutes
T2 construct: made in house; host or cells: E. coli (DH5alpha, BL21 or JM109)
Experimental: as §1, §2, §3, §4, §5, §6

BAI-1 (2/6) : DNAM (22L) = biological target: T3, BAI-1 (2/6) : DNAM (22L) (Homo sapiens, UniProt Q96QZ7); assay: G assay with FDA approved drug (Example 7, TABLE 10B); format: binding; conditions: OD in absence of drug 4; drug concentration per TABLE 11; read after 30 minutes
T3 construct: made in house; host or cells: E. coli (DH5α, BL21 or JM109)
Experimental: as §1, §2, §3, §4, §5, §6

ZO-2 (1/3) : DNAM (22L) = biological target: T4, ZO-2 (1/3) : DNAM (22L) (Homo sapiens, UniProt Q9UDY2); assay: as above; format: binding
T4 construct: made in house; host or cells: E. coli (DH5α, BL21 or JM109)
T4 sequence (Q9UDY2 27-122): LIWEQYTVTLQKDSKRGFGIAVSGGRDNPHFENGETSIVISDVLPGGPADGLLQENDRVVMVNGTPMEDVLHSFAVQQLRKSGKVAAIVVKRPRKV
Experimental: as §1, §2, §3, §4, §5, §6

Atr-P (1/6) : DNAM (22L) = biological target: T5, Atr-P (1/6) : DNAM (22L) (Homo sapiens, UniProt Q86UL8); assay: as above; format: binding; conditions: OD in absence of drug 4; drug concentration per TABLE 11; read after 30 minutes
T5 construct: made in house; host or cells: E. coli (DH5α, BL21 or JM109)
Experimental: as §1, §2, §3, §4, §5, §6

[4] = biological target: T6, Mupp-1 7/13 : Presenilin 2 (117L) (Homo sapiens, UniProt O75970); assay: G assay with FDA approved drug (Example 7, TABLES 10A, 10B); format: binding; conditions: OD in absence of drug 0.5; drug concentration per TABLE 11; read after 30 minutes
T6 construct: Entries having two numbers separated by a slash indicate which PDZ domain was utilized; made in house; host or cells: E. coli (DH5alpha, BL21 or JM109)
Experimental: as §1, §2, §3, §4
as §5, with “For the sequences of the PDZs and PLs used in these tests, see TABLES 8 & 9.” left out

[5] = biological target: T7, Par 3 3/3 : Presenilin 2 (117L) (Homo sapiens, UniProt Q8TEW0); assay: as above; format: binding; conditions: OD in absence of drug 0.6; drug concentration per TABLE 11; read after 30 minutes
T7 construct: made in house; host or cells: E. coli (DH5alpha, BL21 or JM109)
Experimental: as §1, §2, §3, §4
as §5, with “For the sequences of the PDZs and PLs used in these tests, see TABLES 8 & 9.” left out

ZO-1 2/3 : NET (258L) = biological target: T8, ZO-1 2/3 : NET (258L) (Homo sapiens, UniProt Q07157, DEL264-264); assay: G assay with FDA approved drug (Example 7, TABLE 10B); format: binding; conditions: OD in absence of drug 0.8; drug concentration per TABLE 11; read after 30 minutes
T8 construct: made in house; host or cells: E. coli (DH5α, BL21 or JM109)
Experimental: as §1, §2, §3, §4, §5, §6

[6] = test system: Antigen-specific mouse T cells, BR4.2; assay: T cell stimulation assay, MBPAc1-16 and antigen presenting cells, IFNγ ELISA (FIG. 1A); format: cell-based; conditions: 10 μM Tat-peptide; compared to Tat-peptide alone or no peptide
Experimental: Antigen-specific T cell activation was measured by cytokine production. Fusion peptides containing tat and a T cell surface molecule carboxyl terminus inhibited γ-interferon (IFN) production by a T cell line in response to myelin basic protein (MBP) stimulation. […]
Cell Cultures Cells were maintained and tested in RPMI 1640 media supplemented with 10% fetal calf serum (HyClone), 2 mM glutamine, 10 mM Hepes, 100 U/ml penicillin, 100 μg/ml streptomycin, 0.1 mM non-essential amino acids, 1 mM sodium pyruvate, and 50 μM beta mercaptoethanol.
Supernatants were assayed for cytokine production following activation of T cell lines. […]
IFNγ was measured from cell supernatants, described above, at ambient temperature using the Endogen, Inc. ELISA protocol 3. […] The presence of IFNγ was detected with a biotin-labeled anti-mouse IFNγ monoclonal antibody (MM700B, Endogen, Inc.,). […] The absorbance at 450 nm was measured using a microtiter plate reader (Thermo Max, Molecular Devices) and the concentration of unknown IFNγ from cell supernatants was calculated from a standard curve generated by Softmax Pro software (Molecular Devices).

TIP-1 1/1 : LPAP (30L) = biological target: T9, TIP-1 1/1 : LPAP (30L) (Homo sapiens, UniProt O14907); assay: G assay with FDA approved drug (Example 7, TABLE 10A); format: binding; conditions: OD in absence of drug 1.1; drug concentration per TABLE 11; read after 30 minutes
T9 construct: made in house; host or cells: E. coli (DH5alpha, BL21 or JM109)
Experimental: as §1, §2, §3, §4, §5, §6

AF6 : Presenilin (115L) = biological target: T10, AF6 : Presenilin (115L) (Homo sapiens, UniProt P55196); assay: as above; format: binding
T10 construct: made in house; host or cells: E. coli (DH5alpha, BL21 or JM109)
Experimental: as §1, §2, §3, §4, §5, §6

DVL2 : Presenilin (115L) = biological target: T11, DVL2 : Presenilin (115L) (Homo sapiens, UniProt O14641); assay: as above; format: binding; conditions: OD in absence of drug 0.3; drug concentration per TABLE 11; read after 30 minutes
T11 construct: made in house; host or cells: E. coli (DH5alpha, BL21 or JM109)
Experimental: as §1, §2, §3, §4, §5, §6

[7] = biological target: T12, Hemba 1003117 : Presenilin 2 (117L) (Homo sapiens, UniProt Q96JH8); assay: G assay with FDA approved drug (Example 7, TABLE 10B); format: binding; conditions: OD in absence of drug 1.2; drug concentration per TABLE 11; read after 30 minutes
T12 construct: made in house; host or cells: E. coli (DH5α, BL21 or JM109)
Experimental: as §1, §2, §3, §4, §5, §6

[8] = biological target: T13, PTPL-1 (4/5) : Presenilin 2 (117L) (Homo sapiens, UniProt Q12923, G1797A); assay: as above; format: binding; conditions: OD in absence of drug 1.4; drug concentration per TABLE 11; read after 30 minutes
T13 construct: made in house; host or cells: E. coli (DH5α, BL21 or JM109)
Experimental: as §1, §2, §3, §4, §5, §6

T1 sequence (O95049 with tags, fused parts or gaps): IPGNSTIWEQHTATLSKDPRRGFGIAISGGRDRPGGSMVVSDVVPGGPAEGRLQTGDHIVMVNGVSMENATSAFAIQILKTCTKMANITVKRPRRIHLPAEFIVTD
T6 sequence (O75970 with tags, fused parts or gaps): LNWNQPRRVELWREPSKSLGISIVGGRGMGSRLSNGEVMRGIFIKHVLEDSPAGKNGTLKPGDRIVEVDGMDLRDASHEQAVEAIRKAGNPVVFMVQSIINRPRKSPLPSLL
T7 sequence (Q8TEW0 579-681): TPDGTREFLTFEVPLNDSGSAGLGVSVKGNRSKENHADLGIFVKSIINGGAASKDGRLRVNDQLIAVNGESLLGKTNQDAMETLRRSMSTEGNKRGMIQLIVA
T10 sequence (P55196 1001-1093): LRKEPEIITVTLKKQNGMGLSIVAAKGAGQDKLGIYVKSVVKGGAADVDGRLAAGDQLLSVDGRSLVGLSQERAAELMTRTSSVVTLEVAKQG
T2 sequence (Q96JH8 976-1061 limits assumed): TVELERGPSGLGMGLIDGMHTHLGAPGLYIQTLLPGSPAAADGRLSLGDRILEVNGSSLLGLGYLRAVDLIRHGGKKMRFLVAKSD
T13 sequence (Q12923 1782-1879 G1797A): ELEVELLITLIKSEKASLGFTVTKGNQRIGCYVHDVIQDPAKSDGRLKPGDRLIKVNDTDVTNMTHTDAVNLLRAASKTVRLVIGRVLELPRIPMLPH
T8 sequence (Q07157 with tags, fused parts or gaps DEL264-264): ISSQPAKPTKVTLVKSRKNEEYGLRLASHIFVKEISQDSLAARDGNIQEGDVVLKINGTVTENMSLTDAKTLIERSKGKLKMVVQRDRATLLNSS
T3 sequence (Q96QZ7 463-566): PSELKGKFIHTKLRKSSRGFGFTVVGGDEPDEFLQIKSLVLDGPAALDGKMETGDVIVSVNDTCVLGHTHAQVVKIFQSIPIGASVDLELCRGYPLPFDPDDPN
T12 sequence (Q96JH8 969-1068): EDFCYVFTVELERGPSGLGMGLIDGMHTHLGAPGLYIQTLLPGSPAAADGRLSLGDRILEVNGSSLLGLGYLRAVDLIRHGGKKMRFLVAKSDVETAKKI
T9 sequence (O14907 14-116): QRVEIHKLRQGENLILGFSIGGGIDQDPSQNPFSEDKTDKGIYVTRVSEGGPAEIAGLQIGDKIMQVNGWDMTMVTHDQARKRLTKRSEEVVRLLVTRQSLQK
T5 sequence (Q86UL8 408-511): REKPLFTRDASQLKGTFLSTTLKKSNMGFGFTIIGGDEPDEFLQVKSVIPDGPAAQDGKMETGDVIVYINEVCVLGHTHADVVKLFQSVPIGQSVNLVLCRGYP
T11 sequence (O14641 with tags, fused parts or gaps): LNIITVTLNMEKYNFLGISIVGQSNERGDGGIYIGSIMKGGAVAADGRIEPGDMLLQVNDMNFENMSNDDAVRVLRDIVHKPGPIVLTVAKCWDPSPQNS

CNCCCN1c2ccccc2CCc2ccccc21 [Desipramine, DESIPRAMINE HYDROCHLORIDE]
Change in OD: absorbance at 450 nm in presence of drug [1]: 1.1 to 2.3 | Change in OD: absorbance at 450 nm in presence of drug [2]: 1.2 to 3.3 | Change in OD: absorbance at 450 nm in presence of drug [3]: 0.4 to 0.8 | CHANGE IN OD: absorbance at 450 nm in presence of drug (BAI-1 (2/6) : DNAM (22L)): 4 to 1.8 | CHANGE IN OD: absorbance at 450 nm in presence of drug (ZO-2 (1/3) : DNAM (22L); OD in absence of drug 2.1, drug concentration per TABLE 11, read after 30 minutes): 2.1 to 0.5 | antagonistic effect, binding relative to absence of drug (ZO-2 (1/3) : DNAM (22L); ZO-2 domain 1 and DNAM-1): 4.2 fold | CHANGE IN OD: absorbance at 450 nm in presence of drug (Atr-P (1/6) : DNAM (22L)): 4 to 1.5 | Change in OD: absorbance at 450 nm in presence of drug [4]: 0.5 to 1.0 | Change in OD: absorbance at 450 nm in presence of drug [5]: 0.6 to 2.1

CN(C)CCCN1c2ccccc2CCc2ccccc21 [Imipramine, Imipramine HCI]
CHANGE IN OD: absorbance at 450 nm in presence of drug (ZO-1 2/3 : NET (258L)): 0.8 to 0.4

GYGRKKRRQRRRGPPSSSSGL [Tat-CD3 fusion peptide]
T cell activation mediated by peptide:MHC (IFNγ production) [6]: inhibits T cell activation

CN1[C@@H]2CC[C@H]1C[C@@H](OC(c1ccccc1)c1ccccc1)C2 [Benztropine, BENZTROPINE MESYLATE]
Change in OD: absorbance at 450 nm in presence of drug (TIP-1 1/1 : LPAP (30L)): 1.1 to 1.6

CN(C)CCC=C1c2ccccc2CCc2ccccc21 [Amitriptyline, AMITRIPTYLINE HYDROCHLORIDE]
agonist effect, binding relative to absence of drug (AF6 : Presenilin (115L); AF6 and presenilin-1): 4.3 fold | Change in OD: absorbance at 450 nm in presence of drug (AF6 : Presenilin (115L); OD in absence of drug 0.4, drug concentration per TABLE 11, read after 30 minutes): 0.4 to 1.7 | Change in OD: absorbance at 450 nm in presence of drug (DVL2 : Presenilin (115L)): 0.3 to 0.9 | Change in OD: absorbance at 450 nm in presence of drug [1]: 1.1 to 2.7 | Change in OD: absorbance at 450 nm in presence of drug [2]: 1.2 to 3.6

CCCC(CCC)C(=O)O [Valproic Acid, VALPROIC ACID]
CHANGE IN OD: absorbance at 450 nm in presence of drug [7]: 1.2 to 0.8 | CHANGE IN OD: absorbance at 450 nm in presence of drug [8]: 1.4 to 1.1 | Change in OD: absorbance at 450 nm in presence of drug [4]: 0.5 to 0.2 | Change in OD: absorbance at 450 nm in presence of drug [5]: 0.6 to 0.2
